The target in assay [1] is T1, APOL1 G2 (Homo sapiens, UniProt O14791, DEL388-389).
T1 construct: expressed in transfected cells; host or cells: HEK293 T-REx clonal lines: HEK T-REx/GCaMP6f/APOL1 G2 K6.3 in A1, HEK293/T-REx APOL1 G2/clone #2 in A2
T1 sequence (O14791 with tags, fused parts or gaps DEL388-389): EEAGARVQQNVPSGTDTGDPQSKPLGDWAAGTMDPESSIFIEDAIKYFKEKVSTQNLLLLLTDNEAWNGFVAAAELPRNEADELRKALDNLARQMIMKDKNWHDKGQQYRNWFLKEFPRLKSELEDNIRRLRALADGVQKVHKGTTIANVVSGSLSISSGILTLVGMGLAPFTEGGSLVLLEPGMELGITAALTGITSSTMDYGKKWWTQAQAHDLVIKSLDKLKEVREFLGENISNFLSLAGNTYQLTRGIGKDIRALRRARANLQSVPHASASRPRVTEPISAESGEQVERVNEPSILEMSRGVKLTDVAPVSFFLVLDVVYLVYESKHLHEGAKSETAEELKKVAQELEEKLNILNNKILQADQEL
In words: Rescue of HEK293 cell death caused by overexpression of APOL1 (CellTiter-Glo luminescence), HEK293/T-REx APOL1 G2/clone #2. Format: cell-based. To be noted: reversal of cell death caused by overexpression of APOL1; geometric mean of at least 2 assay runs, † = single assay run (technical duplicate). A digest of the protocol:
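HEK293/T-REx APOL1 G2 clone #2 cells, 5,000/well, induced with 6 ng/mL doxycycline and exposed to compound (8-point, 3-fold dilutions, 0.5% DMSO) for 17 h at 37 °C. Viability by CellTiter-Glo luminescence; EC50 for reversal of APOL1-induced death from a four-parameter logistic fit, geometric mean of ≥2 runs.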

For assay [2], the target named is T1, APOL1 G2. In words: APOL1 calcium transport inhibition assay (GCaMP6f calcium influx, FLIPR) in HEK T-REx/GCaMP6f/APOL1 G2 K6.3 cells. It is filed as cell-based. To be noted: inhibition of APOL1-mediated calcium influx; geometric mean of at least 2 assay runs, † = single assay run (technical duplicate). The essentials: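 HEK293 cells stably expressing GCaMP6f, APOL1 G2 induced 6 h with doxycycline (20 ng/mL added), then washed into Ca2+-free Tyrode's buffer pH 7.4. Compounds (8-point dose response) preincubated 10 min at room temperature, then Ca2+ injected to 5 mM final and influx read on FLIPR. AC50 reported as geometric mean of runs.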

Regarding `CN(c1ccc(OC[C@@H]2CCN(CCc3cccc(Cl)c3)C2)cc1)S(C)(=O)=O` [Compound 50, (R)-N-(4-((1-(3-chlorophenethyl)pyrrolidin-3-yl)methoxy)phenyl)-N-methylmethanesulfonamide], the EC50 (usually the concentration that produces a half-maximal response) on APOL1 G2 [1] stood at 2.02 µM. Besides, the AC50 (usually the concentration at which the activity in the assay is half-maximal) on APOL1 G2 [2] came to 1.32 µM.

As to `CS(=O)(=O)c1ccc(OC[C@H]2CCN(CCc3cccc(Cl)c3)C2)cc1` [Compound 51, (S)-1-(3-chlorophenethyl)-3-((4-(methylsulfonyl)phenoxy)methyl)pyrrolidine], on APOL1 G2 [1], the EC50 turned out to be 1.49 µM. Further, at APOL1 G2 [2], the AC50 was found to be 0.727 µM.

Regarding `CN(c1ccc(OC[C@@H](O)CN(CCc2cccc(Cl)c2)CC2CC2)cc1)S(C)(=O)=O` [Compound 59, (S)—N-(4-(3-((3-chlorophenethyl)(cyclopropylmethyl)amino)-2-hydroxypropoxy)phenyl)-N-methylmethanesulfonamide], on APOL1 G2 [1], the EC50 is 1.06 µM. Moreover, on APOL1 G2 [2], the AC50 was 0.245 µM.

For the molecule `CCN(CCc1cccc(Cl)c1)C[C@H](O)COc1ccc(N(C)S(C)(=O)=O)cc1` [Compound 60, (S)-N-(4-(3-((3-chlorophenethyl)(ethyl)amino)-2-hydroxypropoxy)phenyl)-N-methylmethanesulfonamide], the concentration for a half-maximal effect (EC50) on APOL1 G2 [1] was found to be 0.306 µM. Also, at APOL1 G2 [2], the AC50 is below 0.267 µM.

As for `C[C@H](CNCCc1cccc(Cl)c1)COc1ccc(N(C)S(C)(=O)=O)cc1` [Compound 61, (R)—N-(4-(3-((3-chlorophenethyl)amino)-2-methylpropoxy)phenyl)-N-methylmethanesulfonamide], the EC50 at APOL1 G2 [1] was 0.933 µM. Moreover, the AC50 on APOL1 G2 [2] is 0.376 µM.

For `CS(=O)(=O)c1ccc(OC[C@@H](O)CN2CCCCC2Cc2cccc(Cl)c2)cc1` (stereo partly drawn) [Compound 62, (2S)-1-(2-(3-chlorobenzyl)piperidin-1-yl)-3-(4-(methylsulfonyl)phenoxy)propan-2-ol], at APOL1 G2 [1], the EC50 was determined as 0.642 µM. For the same molecule, the AC50 at APOL1 G2 [2] worked out at 0.396 µM.

Consider `CN(c1ccc(OC[C@@H](O)CN[C@H]2C[C@H](c3cccc(Cl)c3)C2)cc1)S(C)(=O)=O` [Compound 65, N-(4-((S)-3-((trans-3-(3-chlorophenyl)cyclo-butyl)amino)-2-hydroxypropoxy)phe-nyl)-N-methylmethanesulfon-amide], for which the EC50 at APOL1 G2 [1] is 0.955 µM. Besides, the AC50 at APOL1 G2 [2] came out at 0.258 µM.

On to `CS(=O)(=O)c1ccc(OC[C@@H](O)CN[C@H]2C[C@H](c3cccc(Cl)c3)C2)cc1` [Compound 66, (S)-1-((trans-3-(3-chlorophenyl)cyclo-butyl)amino)-3-(4-(methylsulfonyl)phe-noxy)propan-2-ol], for which the EC50 on APOL1 G2 [1] came out at 1.38 µM. Moreover, the half-maximal activity concentration (AC50) on APOL1 G2 [2] was 0.468 µM.

Consider `CS(=O)(=O)c1ccc(OC[C@H](O)CN[C@H]2C[C@H](c3cccc(Cl)c3)C2)cc1` [Compound 67, (R)-1-((trans-3-(3-chlorophenyl)cyclo-butyl)amino)-3-(4-(methylsulfonyl)phe-noxy)propan-2-ol], for which the concentration giving a half-maximal response (EC50) on APOL1 G2 [1] stood at 1.35 µM. The half-maximal activity concentration (AC50) at APOL1 G2 [2] came out at 0.34 µM.

Regarding `CN(c1ccc(OC[C@@H](O)CN2CCC(c3cccc(Cl)c3)C2(C)C)cc1)S(C)(=O)=O` (stereo partly drawn) [Compound 68, N-(4-((2S)-3-(3-(3-chlorophenyl)-2,2-dimethylpyrrolidin-1-yl)-2-hydroxypropoxy)phe-nyl)-N-methylmethanesulfon-amide], the EC50 on APOL1 G2 [1] is 0.591 µM. In addition, on APOL1 G2 [2], the AC50 was 0.916 µM.

As for `CN(c1ccc(OC[C@H](O)CN2CCC(c3cccc(Cl)c3)C2(C)C)cc1)S(C)(=O)=O` (stereo partly drawn) [Compound 71, N-(4-((2R)-3-(3-(3-chlorophenyl)-2,2-dimethylpyrrolidin-1-yl)-2-hydroxypropoxy)phe-nyl)-N-methylmethanesulfon-amide], the EC50 on APOL1 G2 [1] was found to be 1.96 µM. Moreover, the AC50 at APOL1 G2 [2] amounted to 0.943 µM.

Turning to `CN(c1ccc(OC[C@@H](O)CN2CCC(c3cccc(Cl)c3)C2)cc1)S(C)(=O)=O` (stereo partly drawn) [Compound 74, N-(4-((2S)-3-(3-(3-chlorophenyl)pyrro-lidin-1-yl)-2-hydroxypropoxy)phe-nyl)-N-methylmethanesulfon-amide], the EC50 on APOL1 G2 [1] came to 2.58 µM. For the same molecule, on APOL1 G2 [2], the AC50 stood at 1.29 µM.

Take `CN(c1ccc(OC[C@H](O)CN2CCC(c3cccc(Cl)c3)C2)cc1)S(C)(=O)=O` (stereo partly drawn) [Compound 77, N-(4-((2R)-3-(3-(3-chlorophenyl)pyrro-lidin-1-yl)-2-hydroxypropoxy)phe-nyl)-N-methylmethanesulfon-amide]: on APOL1 G2 [1], the EC50 was above 6.3 µM. Further, at APOL1 G2 [2], the AC50 came to 1.67 µM.

For `CN(c1ccc(OC[C@@H](O)CN2CCOC(c3cccc(Cl)c3)C2)cc1)S(C)(=O)=O` (stereo partly drawn) [Compound 80, N-(4-((2S)-3-(2-(3-chlorophenyl)morpho-lino)-2-hydroxypropoxy)phe-nyl)-N-methylmethanesulfon-amide], the 50% effective concentration (EC50) on APOL1 G2 [1] was determined as 13 µM. Besides, at APOL1 G2 [2], the AC50 is 13.9 µM.

Turning to `CN(c1ccc(OC[C@H](O)CN2CCOC(c3cccc(Cl)c3)C2)cc1)S(C)(=O)=O` (stereo partly drawn) [Compound 83, N-(4-((2R)-3-(2-(3-chlorophenyl)morpho-lino)-2-hydroxypropoxy)phe-nyl)-N-methylmethanesulfon-amide], at APOL1 G2 [1], the EC50 was above 30 µM. Further, the half-maximal activity concentration (AC50) on APOL1 G2 [2] was above 25 µM.

Turning to `CN(c1ccc(OC[C@@H](O)CNCCc2cccc(Cl)c2)cc1)S(C)(=O)=O` [Compound 86, (S)-N-(4-(3-((3-chlorophenethyl)a-mino)-2-hydroxypropoxy)phe-nyl)-N-methylmethanesulfon-amide], the EC50 on APOL1 G2 [1] is above 4.11 µM. Besides, at APOL1 G2 [2], the AC50 was 0.557 µM.

Take `CN(c1ccc(OC[C@H](O)CNCCc2cccc(Cl)c2)cc1)S(C)(=O)=O` [Compound 87, (R)-N-(4-(3-((3-chlorophenethyl)a-mino)-2-hydroxypropoxy)phe-nyl)-N-methylmethanesulfon-amide]: at APOL1 G2 [1], the EC50 worked out at 1.85 µM. Besides, at APOL1 G2 [2], the AC50 is 0.352 µM.

Turning to `CN(c1ccc(OC[C@@H](O)CNCCc2cc(Cl)ccc2Cl)cc1)S(C)(=O)=O` [Compound 90, (S)-N-(4-(3-((2,5-dichlorophenethyl)amino)-2-hydroxypropoxy)phe-nyl)-N-methylmethanesulfon-amide], on APOL1 G2 [1], the EC50 came to 1.46 µM. Also, the AC50 at APOL1 G2 [2] is 0.515 µM.

For `CN(c1ccc(OC[C@@H](O)CNCCc2cc(Cl)cc(Cl)c2)cc1)S(C)(=O)=O` [Compound 91, (S)-N-(4-(3-((3,5-dichlorophenethyl)amino)-2-hydroxypropoxy)phe-nyl)-N-methylmethanesulfon-amide], the EC50 on APOL1 G2 [1] worked out at 1.04 µM. Further, the AC50 on APOL1 G2 [2] came to 0.472 µM.

With `CN(c1ccc(OC[C@H](O)CNC2(Cc3cccc(Cl)c3)CCOC2)cc1)S(C)(=O)=O` (stereo partly drawn) [Compound 92, N-(4-((2R)-3-((3-(3-chlorobenzyl)tetra-hydrofuran-3-yl)amino)-2-hydroxypropoxy)phe-nyl)-N-methylmethanesulfon-amide], the EC50 at APOL1 G2 [1] is above 9.79 µM. Also, on APOL1 G2 [2], the AC50 was found to be 0.682 µM.

As to `CS(=O)(=O)c1ccc(OC[C@@H](O)CNCCc2cccc(Cl)c2)cc1` [Compound 93, (S)-1-((3-chlorophenethyl)a-mino)-3-(4-(methylsulfonyl)phe-noxy)propan-2-ol], at APOL1 G2 [1], the half-maximal effective concentration (EC50) was above 30 µM. Besides, the AC50 on APOL1 G2 [2] was 6.54 µM.

Turning to `CS(=O)(=O)c1ccc(OC[C@H](O)CNCCc2cccc(Cl)c2)cc1` [Compound 94, (R)-1-((3-chlorophenethyl)a-mino)-3-(4-(methylsulfonyl)phe-noxy)propan-2-ol], at APOL1 G2 [1], the EC50 turned out to be 8.37 µM. The AC50 at APOL1 G2 [2] worked out at 1.62 µM.

Turning to `CC(C)(Cc1cccc(Cl)c1)NC[C@@H](O)COc1ccc(S(C)(=O)=O)cc1` [Compound 97, (R)-1-((1-(3-chlorophenyl)-2-methylpropan-2-yl)amino)-3-(4-(methylsulfonyl)phe-noxy)propan-2-ol], the EC50 at APOL1 G2 [1] was 0.46 µM. The AC50 at APOL1 G2 [2] was found to be 0.314 µM.

For the molecule `COc1ccccc1CCNC[C@H](O)COc1ccc(N(C)S(C)(=O)=O)cc1` [Compound 98, (S)-N-(4-(2-hydroxy-3-((2-methoxyphenethyl)amino)propoxy)phe-nyl)-N-methylmethanesulfon-amide], the EC50 on APOL1 G2 [1] is above 20 µM. In addition, the AC50 on APOL1 G2 [2] was 3.92 µM.

`CN(c1ccc(OC[C@@H](O)CNCCc2cccc(C#N)c2)cc1)S(C)(=O)=O` [Compound 99, (S)-N-(4-(3-((3-cyanophenethyl)a-mino)-2-hydroxypropoxy)phe-nyl)-N-methylmethanesulfon-amide]: the EC50 at APOL1 G2 [1] was above 30 µM. The AC50 at APOL1 G2 [2] is 4.14 µM.

In the case of `CCc1ccccc1CCNC[C@H](O)COc1ccc(N(C)S(C)(=O)=O)cc1` [Compound 100, (S)-N-(4-(3-((2-ethylphenethyl)ami-no)-2-hydroxypropoxy)phe-nyl)-N-methylmethanesulfon-amide], the EC50 at APOL1 G2 [1] stood at 2.73 µM. Also, at APOL1 G2 [2], the concentration at half-maximal activity (AC50) worked out at 1.26 µM.

With `CN(c1ccc(OC[C@@H](O)CNCCc2ccccc2OC(F)F)cc1)S(C)(=O)=O` [Compound 101, (S)-N-(4-(3-((2-(difluoromethoxy)phenethyl)amino)-2-hydroxypropoxy)phe-nyl)-N-methylmethanesulfon-amide], the EC50 on APOL1 G2 [1] stood at 10.1 µM. The AC50 on APOL1 G2 [2] stood at 1.3 µM.

Source of the values: patent US20240316038A1, “APOL1 INHIBITORS AND METHODS OF USE” (Maze Therapeutics, Inc., priority 2021, published 2024).
